According to patent publication US20210155905A1, “Method for Obtaining Haploid Cells” (Centre National de la Recherche Scientifique (CNRS), priority 2017, published 2021):
Entries after “also recorded” stand apart in the source; their conditions may differ.

Legend:
3T3 cells [1] = experiment: FACS DNA content: appearance of the 1C (sub-G1) cell population 20 hours after release from G0; assay type: cell-based, mouse; conditions: ΔDboxGeminin-expressing cells, 9 μM RO-3306 upon G0/G1 release
Description: (§1) FIG. 31 represents FACS profiles showing the DNA content (propidium iodide staining) of 3T3 cells 20 hours after release from G0 in the presence (+ΔDboxGem) or not (−ΔDboxGem) of doxycycline alone (CTRL—first column) or combined with RO-3306 treatment (a CDK1 inhibitor that prevents mitotic entry second column) or after UV treatment (performed upon release to induce DNA damage; third column).
For PI, BrdU/PI and ^ser10PH3/PI experiments, cells were fixed in cold 70% Ethanol/PBS and then processed for indirect immunofluorescence, as described above. To detect cyclin B1/PI, MPM2/PI and FLAG/PI, cells were fixed in 3% PFA in PBS at RT for 15 min, permeabilized in 0.5% Triton X-100 for 5 min and processed for indirect immunofluorescence. For DNA staining, cells were treated with 50 μg·mL^−1 RNase A (Sigma, R6513) and stained with 25 μg·mL^−1 propidium iodide.
(§2) To express CDT1, 3T3 cells were transfected with 5 μg of plasmid pCDNA3-CDT1 or empty vector using Nucleofector TN II; Amaxa Biosystem; AAD-1001N. To induce DNA damage, synchronized cells were exposed to UV (0.002 joules) using the Bioblock Scientific BLX-254 upon release or incubated with 2 mM hydroxyurea for 20 hours. To block mitotic progression, 9 μM RO-3306 was added in the medium upon G0/G1 release.

3T3 cells [2] = experiment: Western blotting of cleaved caspase 3 (apoptosis); assay type: cell-based, mouse; conditions: synchronized cells, hydroxyurea for 20 hours
Description: as §1
FIG. 32 is a control western blot used as control of the experiment of FIG. 31. […] A: next G1, B: HU and C: U.V. C3*: cleaved caspase 3 and H3: histone H3.
as §2
To prepare total cell extracts, cells were harvested, washed twice with PBS, lysed in 2× Laemmli buffer, sonicated (3×30 seconds) and boiled for 5 min. To obtain chromatin-enriched fractions, a protocol adapted from Lutzmann et al. [Lutzmann et al. 2012 Molecular Cell, 47, 523-534] was used. […]

O=C1NC(=NCc2cccs2)S/C1=C\c1ccc2ncccc2c1 [RO-3306]
appearance of the 1C DNA content cell population (3T3 cells [1]): prevented mitotic entry and the appearance of the 10 DNA cell population; also recorded: totally prevented their appearance

NC(=O)NO [hydroxyurea]
apoptosis (cleaved caspase 3) (3T3 cells [2]): did not induce detectable apoptosis
